The results in this text go back to patent US6841519B1, “Isoxazoline derivatives and herbicides containing the same as the active ingredient” (Kumiai Chemical Industry Co., Ltd., priority 1999, dated 2005).

Format in all cases: in vivo
The test system of data set [1] is Echinochloa oryzicola Vasing. (Eo). Put plainly: Test for crop selectivity by paddy field soil treatment (Test Example 4), herbicidal effect on Eo. The conditions noted are these: 100 g/10 a active ingredient, 21st day. Here is the method:
(§1) [table] <Test Example 4> Test For Crop Selectivity By Paddy Field Soil Treatment A paddy field soil was filled in a plastic pot of 100 cm^2 and subjected to puddling. Seeds of Echinochloa oryzicola Vasing. (Eo) were sowed; two-leaf stage seedlings of rice (Or) were transplanted in a depth of 2 cm; and water was filled in a depth of 3 cm. Next day, wettable powders produced in accordance with the Formulation 1 were diluted with water and dropped on the water surface. The application amount of each wettable powder was 100 g per 10 ares in terms of the active ingredient. Then, breeding was made in a greenhouse. At the 21st day from the treatment, the phytotoxicity and herbicidal effect of each wettable powder were examined in accordance with the standard shown in Table 40.

Another data set has as its system rice (Or). Briefly: Test for crop selectivity by paddy field soil treatment (Test Example 4), phytotoxicity to rice. The conditions noted are these: transplanted two-leaf stage rice, 100 g/10 a active ingredient, 21st day. Here is the method:
as §1

For data set [2], the system named is Echinochloa oryzicola Vasing. (Eo). Put plainly: Test for herbicidal effect by paddy field soil treatment (Test Example 1). The following applies: application amount (active ingredient) 100 g/10 a, examined at the 21st day from the treatment, index per Table 40. The method in brief:
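Eo seeds sown in puddled paddy soil under 3 cm water; next day a water-diluted wettable powder was dropped onto the water surface at 100 g active ingredient per 10 ares. Herbicidal effect scored on a standard scale 21 days after treatment, greenhouse-grown.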

The test system of data set [3] is Echinochloa crus-galli (L.) Beauv. var. crusgall (Ec). Put plainly: Test for herbicidal effect by upland field soil treatment (Test Example 2), Ec. An outline of the steps:
(§2)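 Echinochloa crus-galli and Setaria viridis were sown in upland field soil and covered, then the soil surface was sprayed with water-diluted wettable powder at 100 g active ingredient per 10 ares (100 liters per 10 ares). Plants were grown in a greenhouse and scored on a standard scale on day 21.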

In data set [4] the test system is Setaria viridis (L.) Beauv. (Se). Briefly: Test for herbicidal effect by upland field soil treatment (Test Example 2), Se. The method in brief: as §2
Where [5] appears, read: 100 g/10 a active ingredient, examined at 21st day.
Where [6] appears, read: application amount (active ingredient) 100 g/10 a, examined at the 21st day from the treatment, index per Table 40.

Regarding `CC1(C)CC(S(=O)(=O)Cc2c(N)cccc2F)=NO1` [Compound 1-549], the “Herbicidal effect to Eo” value in data set [1] and in data set [2] was 5 (A herbicidal effect or phytotoxicity of 90% or more) each time. Besides, the “Phytotoxicity to Or” value with rice (Or) is given as 1 (A herbicidal effect or phytotoxicity of 10% to less than 30%). Further, in data set [3] (setting [5]), the “Herbicidal effect to Ec” value was 5 (A herbicidal effect or phytotoxicity of 90% or more). Further, the “Herbicidal effect to Se” value in data set [4] (setting [5]) is recorded as 5 (A herbicidal effect or phytotoxicity of 90% or more).

For the compound `CCCOC(=O)c1ccccc1CS(=O)(=O)C1=NOC(C)(C)C1` [Compound 1-594], the “Herbicidal effect to Eo” value in data set [1] and in data set [2] was 5 (A herbicidal effect or phytotoxicity of 90% or more) in each case. The “Phytotoxicity to Or” value in the data set with rice (Or) is given as 1 (A herbicidal effect or phytotoxicity of 10% to less than 30%). For the same compound, the “Herbicidal effect to Ec” value in data set [3] (setting [5]) is 5 (A herbicidal effect or phytotoxicity of 90% or more). Also, in data set [4] (setting [5]), the “Herbicidal effect to Se” value is 4 (A herbicidal effect or phytotoxicity of 70% to less than 90%).

Regarding `O=S(=O)(Cc1c(F)cccc1F)C1=NOC2(CCCCC2)C1` [Compound 1-384], the “Herbicidal effect to Eo” value in data set [1] and in data set [2] was 5 (A herbicidal effect or phytotoxicity of 90% or more) each time. Also, the “Phytotoxicity to Or” value with rice (Or) is on record as 0 (A herbicidal effect or phytotoxicity of 0% to less than 10%). For the same compound, the “Herbicidal effect to Ec” value in data set [3] (setting [6]) was 5 (A herbicidal effect or phytotoxicity of 90% or more). In addition, in data set [4] (setting [6]), the “Herbicidal effect to Se” value is reported as 4 (A herbicidal effect or phytotoxicity of 70% to less than 90%).

On to `CCCOC(=O)c1cccc(Cl)c1CS(=O)(=O)C1=NOC(C)(C)C1` [Compound 1-620], for which the “Herbicidal effect to Eo” value in data set [1] and in data set [2] was 5 (A herbicidal effect or phytotoxicity of 90% or more) in each case. For the same compound, the “Phytotoxicity to Or” value in the data set with rice (Or) was 1 (A herbicidal effect or phytotoxicity of 10% to less than 30%). In data set [3] (setting [5]), the “Herbicidal effect to Ec” value was 5 (A herbicidal effect or phytotoxicity of 90% or more). For the same compound, the “Herbicidal effect to Se” value in data set [4] (setting [5]) is reported as 5 (A herbicidal effect or phytotoxicity of 90% or more).

Take `CCC1(C)CC(SCc2c(F)cccc2F)=NO1` (stereo not drawn) [Compound 1-198]: the “Herbicidal effect to Eo” value in data set [1] and in data set [2] was 5 (A herbicidal effect or phytotoxicity of 90% or more) in each case. The “Phytotoxicity to Or” value in the data set with rice (Or) was 1 (A herbicidal effect or phytotoxicity of 10% to less than 30%). The “Herbicidal effect to Ec” value in data set [3] (setting [6]) is recorded as 4 (A herbicidal effect or phytotoxicity of 70% to less than 90%). In addition, the “Herbicidal effect to Se” value in data set [4] (setting [6]) is reported as 5 (A herbicidal effect or phytotoxicity of 90% or more).

Turning to `CC1(CO)CC(S(=O)(=O)Cc2c(F)cccc2F)=NO1` (stereo not drawn) [Compound 1-394], the “Herbicidal effect to Eo” value in data set [1] and in data set [2] was 5 (A herbicidal effect or phytotoxicity of 90% or more) in each case. Further, the “Phytotoxicity to Or” value in the data set on rice (Or) is 1 (A herbicidal effect or phytotoxicity of 10% to less than 30%). Also, in data set [3] (setting [6]), the “Herbicidal effect to Ec” value is reported as 4 (A herbicidal effect or phytotoxicity of 70% to less than 90%).

Turning to `CCCCOC(=O)c1ccccc1CS(=O)(=O)C1=NOC(C)(C)C1` [Compound 1-596], the “Herbicidal effect to Eo” value in data set [1] and in data set [2] was 5 (A herbicidal effect or phytotoxicity of 90% or more) each time. For the same compound, the “Phytotoxicity to Or” value in the data set with rice (Or) was 1 (A herbicidal effect or phytotoxicity of 10% to less than 30%). Besides, the “Herbicidal effect to Ec” value in data set [3] (setting [5]) was 5 (A herbicidal effect or phytotoxicity of 90% or more). For the same compound, in data set [4] (setting [5]), the “Herbicidal effect to Se” value is 5 (A herbicidal effect or phytotoxicity of 90% or more).

On to `CCC1(C)CC(S(=O)(=O)Cc2cccc(F)c2)=NO1` (stereo not drawn) [Compound 1-190], for which the “Herbicidal effect to Eo” value in data set [1] and in data set [2] was 5 (A herbicidal effect or phytotoxicity of 90% or more) each time. The “Phytotoxicity to Or” value with rice (Or) was 1 (A herbicidal effect or phytotoxicity of 10% to less than 30%). The “Herbicidal effect to Ec” value in data set [3] (setting [6]) is given as 5 (A herbicidal effect or phytotoxicity of 90% or more). In addition, the “Herbicidal effect to Se” value in data set [4] (setting [6]) is given as 5 (A herbicidal effect or phytotoxicity of 90% or more).

As for `CCC1(C)CC(S(=O)(=O)Cc2cccc(C#N)c2)=NO1` (stereo not drawn) [Compound 1-328], the “Herbicidal effect to Eo” value in data set [1] and in data set [2] was 5 (A herbicidal effect or phytotoxicity of 90% or more) throughout. In addition, the “Phytotoxicity to Or” value in the data set with rice (Or) is listed as 0 (A herbicidal effect or phytotoxicity of 0% to less than 10%). Moreover, the “Herbicidal effect to Ec” value in data set [3] (setting [6]) was 4 (A herbicidal effect or phytotoxicity of 70% to less than 90%). Moreover, the “Herbicidal effect to Se” value in data set [4] (setting [6]) is reported as 4 (A herbicidal effect or phytotoxicity of 70% to less than 90%).

Take `CCCCOC(=O)c1cccc(Cl)c1CS(=O)(=O)C1=NOC(C)(C)C1` [Compound 1-622]: the “Herbicidal effect to Eo” value in data set [1] and in data set [2] was 5 (A herbicidal effect or phytotoxicity of 90% or more) each time. In addition, the “Phytotoxicity to Or” value with rice (Or) is 1 (A herbicidal effect or phytotoxicity of 10% to less than 30%). Further, the “Herbicidal effect to Ec” value in data set [3] (setting [5]) was 5 (A herbicidal effect or phytotoxicity of 90% or more).

In the case of `O=S(=O)(Cc1c(F)cccc1F)C1=NOC2CCCCCC12` (stereo not drawn) [Compound 1-518], the “Herbicidal effect to Eo” value in data set [1] is 5 (A herbicidal effect or phytotoxicity of 90% or more). In addition, the “Phytotoxicity to Or” value with rice (Or) is recorded as 1 (A herbicidal effect or phytotoxicity of 10% to less than 30%). For the same compound, the “Herbicidal effect to Ec” value in data set [3] (setting [5]) is 5 (A herbicidal effect or phytotoxicity of 90% or more). Besides, the “Herbicidal effect to Se” value in data set [4] (setting [5]) is 4 (A herbicidal effect or phytotoxicity of 70% to less than 90%).

Take `CCC1(C)CC(S(=O)(=O)Cc2ccccc2OC)=NO1` (stereo not drawn) [Compound 1-228]: the “Herbicidal effect to Eo” value in data set [1] and in data set [2] was 5 (A herbicidal effect or phytotoxicity of 90% or more) each time. Also, the “Phytotoxicity to Or” value in the data set with rice (Or) was 1 (A herbicidal effect or phytotoxicity of 10% to less than 30%). The “Herbicidal effect to Ec” value in data set [3] (setting [6]) is 5 (A herbicidal effect or phytotoxicity of 90% or more). Moreover, the “Herbicidal effect to Se” value in data set [4] (setting [6]) was 5 (A herbicidal effect or phytotoxicity of 90% or more).

For the compound `CCCCOc1cccc(C)c1CS(=O)(=O)C1=NOC(C)(C)C1` [Compound 1-605], the “Herbicidal effect to Eo” value in data set [1] and in data set [2] was 5 (A herbicidal effect or phytotoxicity of 90% or more) in each case. Further, the “Phytotoxicity to Or” value in the data set with rice (Or) is on record as 1 (A herbicidal effect or phytotoxicity of 10% to less than 30%). Further, the “Herbicidal effect to Ec” value in data set [3] (setting [5]) is given as 5 (A herbicidal effect or phytotoxicity of 90% or more). For the same compound, the “Herbicidal effect to Se” value in data set [4] (setting [5]) is listed as 4 (A herbicidal effect or phytotoxicity of 70% to less than 90%).

Take `CS(=O)(=O)C1=NOC2(CCC2)C1` [Compound 2-29]: the “Herbicidal effect to Eo” value in data set [1] and in data set [2] was 5 (A herbicidal effect or phytotoxicity of 90% or more) each time. In addition, in the data set with rice (Or), the “Phytotoxicity to Or” value is 1 (A herbicidal effect or phytotoxicity of 10% to less than 30%). For the same compound, the “Herbicidal effect to Ec” value in data set [3] (setting [5]) is 5 (A herbicidal effect or phytotoxicity of 90% or more). In addition, in data set [4] (setting [5]), the “Herbicidal effect to Se” value is on record as 5 (A herbicidal effect or phytotoxicity of 90% or more).

For the compound `CCCCOCc1ccccc1CS(=O)(=O)C1=NOC(C)(C)C1` [Compound 1-615], the “Herbicidal effect to Eo” value in data set [1] and in data set [2] was 5 (A herbicidal effect or phytotoxicity of 90% or more) in each case. For the same compound, in the data set on rice (Or), the “Phytotoxicity to Or” value is 1 (A herbicidal effect or phytotoxicity of 10% to less than 30%). Further, the “Herbicidal effect to Ec” value in data set [3] (setting [5]) is given as 5 (A herbicidal effect or phytotoxicity of 90% or more). In addition, the “Herbicidal effect to Se” value in data set [4] (setting [5]) is 5 (A herbicidal effect or phytotoxicity of 90% or more).

With `CC1(C)CC(S(=O)(=O)Cc2ccccc2OC2CCCCC2)=NO1` [Compound 1-610], the “Herbicidal effect to Eo” value in data set [1] and in data set [2] was 5 (A herbicidal effect or phytotoxicity of 90% or more) each time. Besides, in the data set with rice (Or), the “Phytotoxicity to Or” value is listed as 1 (A herbicidal effect or phytotoxicity of 10% to less than 30%). Also, the “Herbicidal effect to Ec” value in data set [3] (setting [5]) is 5 (A herbicidal effect or phytotoxicity of 90% or more). The “Herbicidal effect to Se” value in data set [4] (setting [5]) is listed as 5 (A herbicidal effect or phytotoxicity of 90% or more).

For `CCOCCOc1ccccc1CS(=O)(=O)C1=NOC(C)(C)C1` [Compound 1-580], the “Herbicidal effect to Eo” value in data set [1] and in data set [2] was 5 (A herbicidal effect or phytotoxicity of 90% or more) each time. Further, the “Phytotoxicity to Or” value in the data set with rice (Or) was 1 (A herbicidal effect or phytotoxicity of 10% to less than 30%). Besides, the “Herbicidal effect to Ec” value in data set [3] (setting [5]) is recorded as 5 (A herbicidal effect or phytotoxicity of 90% or more).
